# According to patent publication US12503455B2, “Nucleic acid-binding photoprobes and uses thereof” (Arrakis Therapeutics, Inc., priority 2017, dated 2025):
# How the values were obtained:
# [1] = tested on: Aptamer 21; test: Biotin-photoaffinity probe cross-linking and streptavidin bead pull-down gel assay; type: binding; conditions: Aptamer 21 compared with Aptamer 21-E
# [2] = tested on: Aptamer 21; test: Capture of Aptamer 21 from a defined mixture of RNAs; type: binding
# Protocol: A sample of folded RNA was prepared containing 1 μM each of Myc HP PA, Aptamer 21, FMN, MYC_3WJ-HP_N3G, and PreQ1 RNAs in folding buffer (20 mM TrisHCl pH 8, 100 mM KCl, 3 mM MgCl2). A 95 μL sample of this solution was added to a 5 μL aliquot of 0.2 mM ARK-670 (probe) or ARK-139 (control) in DMSO. The reaction was incubated for 30 min at 37° C., irradiated with long wave UV light (˜365 nm) for 30 min in a UV crosslinker (Fisher Scientific), and then cooled on ice. The excess probe and buffer was then removed by passing the sample through an Illustra MicroSpin G-25 spin column (GE Healthcare) according to the manufacturer's protocol.
# For each treatment, a 75 μL aliquot of the crosslinked RNA was mixed with 0.75 μL of 10% Tween-20 and 0.45 μL of 0.5 M EDTA pH 8 solution. A 50 μL aliquot of MyOne Streptavidin C1 Dynabead slurry (Thermo) was captured on a magnet, washed twice with 50 μL of 1× bind/wash buffer (20 mM TrisHCl pH 7, 100 mM KCl, 0.1% Tween-20), and then resuspended in 50 μL of the crosslinked RNA sample. The bead suspension was rotated at room temperature for 60 min and then washed twice with 100 μL of 1× bind/wash solution. […]
# To remove excess primer, the sample was mixed with 4.5 μL of ExoSAP-IT, incubated at 37° C. for 15 min, and then quenched with 1 μL of 0.5 M EDTA pH 8. […] The concentration was determined by absorbance at 260 nm. […]
smiles,measurement,setting,value
COC(=O)C1=C(COCc2cn(CCOCCOCCNC(=O)[C@H](CCCCNC(=O)c3ccc(N=[N+]=[N-])cc3)NC(=O)CCCC[C@@H]3SC[C@@H]4NC(=O)N[C@@H]43)nn2)NC(c2ccncc2)=NC1c1ccc(F)cc1Cl (stereo partly drawn) [ARK-670],pull-down of RNA on streptavidin beads after cross-linking,[1],Only the Aptamer 21 RNA showed significant pull-down
same,RT pausing signal from probe adducts,"[2]; Aptamer 21, Aptamer 21-E, or mixture of Aptamer 21 and four other RNAs",specific for Aptamer 21
same,"enrichment of RNAs after cross-linking, avidin bead enrichment and sequencing",[2]; mixture of Aptamer 21 and four other RNAs,only Aptamer 21 was enriched
